{
  "source": "paper PMC10630888",
  "about": "“Nuclear ERK1/2 signaling potentiation enhances neuroprotection and cognition via Importinα1/KPNA2” (EMBO Molecular Medicine, 2023)",
  "key": {"[1]": {"test_system": "S6 (Ser235/236) phosphorylation", "assay": "Striatal pS6 (Ser235/236) immunofluorescence 1 h after single injection", "assay_type": "in vivo, mouse", "conditions": "single injection 20 mg/kg i.p., individual mice", "description": "Immunofluorescence was performed as described in Papale et al ([2016]). Briefly, 1 h after blocking in 5% normal goat serum, slices were incubated overnight at 4°C with the following primary antibodies: anti‐phospho (Ser10)‐acetylated (Lys14) histone H3 (1:1,000, Millipore), anti‐phospho‐S6 ribosomal protein (Ser235/236) (1:200, Cell Signaling Technology) anti‐phospho‐S6 ribosomal protein (Ser240/244) (1:200, Cell Signaling), cleaved caspase‐3 (1:200, Cell Signaling Technology), anti‐mutant Huntingtin (1:100, Developmental Studies Hybridoma Bank, University of Iowa, #MW8), and NeuN (1:1,000, Millipore). Corresponding secondary antibodies (Alexa Fluor 546 conjugated anti‐mouse (1:200, Thermo Fisher Scientific), Alexa Fluor 488 conjugated anti‐rabbit (1:500, Thermo Fisher Scientific) and Pacific Blue goat anti‐mouse (1:200, Thermo Fisher Scientific) were incubated at room temperature for 1 h. Sections stained for mutant Huntingtin were incubated with DAPI for 20 min. Sections were subsequently mounted with fluorescent mounting medium (DAKO). Single and double‐labeled images ([…]) were obtained at 40× magnification from the striatum using a laser scanning confocal microscope (Leica SP2) equipped with the corresponding lasers and appropriate filter sets to avoid the crosstalk between the fluorochromes.\nIn ex‐vivo and in‐vivo immunofluorescence experiments, the number of p‐S6 or p‐AcH3 immunoreactive neurons among NeuN‐positive neurons was counted in 2–3 consecutive striatal sections per mouse in four fields per section. Caspase 3‐positive cells were quantified among NeuN‐positive neurons in each slide and expressed as percentage (ratio between caspase‐3‐positive cells and total NeuN‐positive neurons) for each field acquired through the slide. The number of cells showing mutant Huntingtin inclusions were expressed as a percentage of mutant Huntingtin‐positive cells among DAPI‐positive cells."}, "pERK1/2": {"test_system": "pERK1/2", "assay": "pERK1/2 in dorsal striatum, MPTP model", "assay_type": "in vivo, mouse", "description": "Immunohistochemistry was performed as described in Papale et al ([2016]). Briefly, 1 h after blocking in 5% normal goat serum and 0.1% Triton X‐100 solution, free‐floating sections were incubated overnight at 4°C with one of the following primary antibodies: anti‐phospho‐p44/42 MAP kinase (Thr202/Tyr204) (1:200, Cell Signaling Technology #9101), anti‐phospho–Elk‐1 (Ser383) (1:100, Cell Signaling #9181), anti‐phospho‐Kv4.2 (Thr607)‐R (1:100, Santa Cruz sc22254‐R), anti‐phospho‐MSK‐1 (1:100 Cell Signaling Technology #9595), anti‐phospho‐MEK1/2 (Ser218/222) (1:100, sc‐7995 Santa Cruz Biotechnology), c‐Fos (1:100, sc‐52 Santa Cruz Biotechnology), tyrosine Hydroxylase (monoclonal 1:1,000, Sigma Aldrich, Italy) and anti‐DARPP‐32 (H3) (1:100, Santa Cruz Biotechnology, #sc‐271111) overnight at 4°C. […]\nFor in vivo immunohistochemistry experiments, images were acquired from the dorsal striatum using a Leica DM IRB microscope under a 20× objective. The number of p‐ERK, p‐MSK‐1, p‐ELK, p‐MEK‐1, p‐VG K+, c‐Fos, and DARPP‐32 positive cells was counted in 2–3 consecutive sections per mouse, bilaterally and averaged across the sections using the ImageJ software by a blind investigator to the condition. Estimation of nigral cell loss was assessed by quantifying the number of TH‐immunopositive neurons of the SNc in 360 μm‐spaced sections for each animal. […]"}, "p-ERK in dorsal striatum": {"test_system": "p-ERK in dorsal striatum", "assay": "In vivo time course of striatal pERK after RB5", "parameters": "species or system mouse", "conditions": "mice, acute systemic administration, 20 mg/kg i.p.", "description": "For the dose response study, 2‐month‐old CD1 male mice were injected with different doses of RB5 (1, 2.5, 5, 10, and 20 mg/kg, i.p.), whereas the control group was injected with 20 mg/kg (i.p.) of SCR peptide. Mice were perfused 1 h later with 4% PFA. For the time course study, mice were injected i.p. with 20 mg/kg of RB5 and perfused at different time points with 4% PFA (1, 3, 6, and 12 h). The control group was injected i.p. with 20 mg/kg of SCR. Brains were postfixed in 4% PFA for 24 h and cryoprotected overnight in sucrose 30% before immunohistochemistry against phospho‐ERK1/2.\nImmunohistochemistry was performed as described in Papale et al ([2016]). […]\nFor in vivo immunohistochemistry experiments, images were acquired from the dorsal striatum using a Leica DM IRB microscope under a 20× objective. The number of p‐ERK, p‐MSK‐1, p‐ELK, p‐MEK‐1, p‐VG K+, c‐Fos, and DARPP‐32 positive cells was counted in 2–3 consecutive sections per mouse, bilaterally and averaged across the sections using the ImageJ software by a blind investigator to the condition. Estimation of nigral cell loss was assessed by quantifying the number of TH‐immunopositive neurons of the SNc in 360 μm‐spaced sections for each animal."}},
  "note": "Where “and” joins values, the source holds several entries; their conditions need not be identical. Equal entries are not always repeated.",
  "data": [
    {"sequence": "GRKKRRQRRRPPQGGGGGEPRRTEGVGPGVPGEVEMVKGQPFDV [RB5, six D-amino acids, acetylated N-terminus]", "values": [
      {"measurement": "pS6 (Ser235/236) positive neurons in striatum", "setting": "[1]; ERK1+/+ (WT) mice", "value": "comparable in both genotypes"},
      {"measurement": "pS6 (Ser235/236) positive neurons in striatum", "setting": "[1]; ERK1-/- mice", "value": "comparable in both genotypes"},
      {"measurement": "pS6 (Ser235/236) positive neurons in striatum", "setting": "[1]; 1 h", "value": "slightly reduced"},
      {"measurement": "pERK1/2 in dorsal striatum of MPTP-treated animals", "setting": "pERK1/2; MPTP 20 mg/kg i.p. and RB5 20 mg/kg i.p. for 4 days", "value": "further enhanced"},
      {"measurement": "pERK1/2 in dorsal striatum (Fig 5 panel i)", "setting": "pERK1/2; MPTP model, individual animals", "value": "320.238 and 468.254 and 523.81 and 295.238 and 784.921 and 378.571 and 564.683 and 633.333 and 362.302 and 348.413 and 268.452 and 448.016 and 342.46 and 421.429"},
      {"measurement": "half-life (suggested by duration of striatal ERK phosphorylation)", "setting": "p-ERK in dorsal striatum", "value": "6 to 12", "unit": "h"}
    ]}
  ]
}
